Experimental data from US4229448A, “5-Substituted picolinic acid derivatives and an anti-hypertensive composition containing the same” (Meuji Seika Kaisha Ltd., priority 1978, dated 1980).
Structures can show the parent of a compound that is named as a salt.

How the values were obtained:
[1] = Acute toxicity (LD50), intraperitoneal (Table 1); format: in vivo; settings: mouse, in vivo, ip, male ICR mice, 5 week old, observed 1 week after administration
[2] = test system: spontaneously hypertensive rats; assay: Blood pressure changes, Direct Blood Pressure Measuring Method, oral administration (Table 1); format: in vivo; settings: Rattus norvegicus, read-out: Maximum Depression in Blood Pressure
Procedure: Each of the compounds of the invention as indicated below was suspended in a 5% aqueous gum arabic solution and the suspension was administered orally (100 mg/kg) to groups consisting of three spontaneously hypertensive rats (18-23 week old; blood pressure before administration: 170-190 mmHg).

[3] = Oral LD50; settings: in vivo
[4] = test system: spontaneously hypertensive rats; assay: Blood pressure changes, Tail Cuff Method, oral administration (Table 2); format: in vivo; settings: Rattus norvegicus, 100 mg/kg orally, read-out: Maximum Depression in Blood Pressure
Procedure: Each of the compounds of the invention as indicated below was suspended in a 5% aqueous gum arabic solution and the suspension was administered orally to groups consisting of three spontaneously hypertensive rats (17-23 week old; blood pressure before administration: 170-190 mmHg).

[5] = test system: male mice (ICR strain, 5 week old); assay: Acute toxicity (LD50), intraperitoneal (Table 1); format: in vivo; settings: observed 1 week after administration, 10080 min
[6] = prior art; cited from earlier work
[7] = prior art; cited from earlier work; remark: listed apart in the source
[8] = Water solubility; format: physicochemical; settings: suited for subcutaneous injection
[9] = 100 mg/kg orally, spontaneously hypertensive rats, Direct Blood Pressure Measuring Method

SMILES	LD50 at 168 h [1]	inhibition in vivo at 100 mg/kg [2, 9]	also measured
O=C(O)c1ccc(Oc2cccc(C(F)(F)F)c2)cn1 [5-(m-trifluoromethylphenoxy)picolinic acid]	500 to 600 mg/kg	20.8%	–
O=C(Oc1ccc2c(c1)CCC2)c1ccc(OCCCCCl)cn1 [5-indanyl ester of 5-(4-chlorobutoxy)picolinic acid]	–	–	LD50 [3]: 1600 to 1800 mg/kg; inhibition in vivo at 100 mg/kg [4]: 26.3%
CCOC(=O)c1ccc(Oc2ccc(Cl)cc2)cn1 [ethyl ester of 5-(p-chlorophenoxy)picolinic acid]	–	–	inhibition in vivo at 100 mg/kg [4]: 23.3%
CC(=O)c1ccc(Oc2ccc(C(=O)O)nc2)cc1 [5-(p-Acetylphenoxy)picolinic Acid]	400 to 500 mg/kg	17.3%	–
O=C(O)c1ccc(Oc2ccc(C(F)(F)F)cc2)cn1 [5-(p-trifluoromethylphenoxy)picolinic acid]	200 to 250 mg/kg	29.3%	–
CC(OC(=O)c1ccc(Oc2ccc(Cl)cc2)cn1)OC(=O)C(C)(C)C (stereo not drawn) [α-pivaloyloxyethyl ester of 5-(p-chlorophenoxy)picolinic acid]	–	–	LD50 [3]: 900 to 1000 mg/kg; inhibition in vivo at 100 mg/kg [4]: 21.8%
COc1ccc(Oc2ccc(C(=O)O)nc2)cc1 [5-(p-Methoxyphenoxy)picolinic Acid, 5-(p-methoxyphenoxy)picolinic acid]	500 to 600 mg/kg	14.2%	–
O=C(O)c1ccc(Oc2cccc(Cl)c2)cn1 [5-(m-Chlorophenoxy)picolinic Acid, 5-(m-chlorophenoxy)picolinic acid]	300 to 400 mg/kg	16.7%	–
O=C(O)c1ccc(Oc2ccc(Cl)cc2)cn1 [Calcium Salt of 5-(p-Chlorophenoxy)picolinic Acid]	–	–	Acute Toxicity (LD50) [5]: 350 to 400 mg/kg
O=C(O)c1ccc(OCCCCC(F)(F)F)cn1 [5-(5,5,5-Trifluoropentyloxy)picolinic Acid] [5-(5,5,5-trifluoropentyloxy)picolinicacid]	–	–	Acute Toxicity (LD50) [5]: 150 to 200 mg/kg
O=C(Oc1ccc2c(c1)CCC2)c1ccc(Oc2ccc(Cl)cc2)cn1 [indanyl ester of 5-(p-chlorophenoxy)picolinic acid]	–	–	LD50 [3]: 700 to 800 mg/kg; inhibition in vivo at 100 mg/kg [4]: 27.5%
O=C(O)c1ccc(Oc2ccccc2C(F)(F)F)cn1 [5-(o-trifluoromethylphenoxy)picolinic acid]	150 to 200 mg/kg	27.6%	LD50 [3]: 400 to 600 mg/kg
O=C(O)c1ccc(Oc2ccc([N+](=O)[O-])cc2)cn1 [5-(p-Nitrophenoxy)picolinic Acid, 5-(p-nitrophenoxy)picolinic acid]	500 to 600 mg/kg	15.1%	–
CCCCc1ccc(C(=O)O)nc1 [Fusaric Acid, 5-n-butylpicolinic acid, reference compound]	75 to 100 mg/kg	–	LD50 value (in words) [6]: low LD50 value; anti-hypertensive activity (in words) [7]: useful as an anti-hypertensive agent; inhibition in vivo at 100 mg/kg [2]: 15.8%
NC(=O)c1ccc(Oc2ccccc2C(F)(F)F)cn1 [5-(o-trifluoromethylphenoxy)picolinic acid amide]	–	–	LD50 [3]: 950 mg/kg; inhibition in vivo at 100 mg/kg [4]: 20.7%
O=C(O)c1ccc(OCCCCCl)cn1 [5-(4-Chlorobutoxy)picolinic Acid, 5-(4-chlorobutoxy)picolinic acid]	–	23%	LD50 [3]: 900 mg/kg; Acute Toxicity (LD50) [5]: 150 to 200 mg/kg
CCCCOc1ccc(C(=O)O)nc1 [5-n-Butoxy-picolinic Acid, reference compound]	100 to 150 mg/kg	16.6%	–
O=C(O)c1ccc(OCCCCCl)cn1 [Calcium Salt of 5-(4-Chlorobutoxy)picolinic Acid] [Calcium 5-(4-chlorobutoxy)picolinate]	–	–	Acute Toxicity (LD50) [5]: 800 to 1000 mg/kg
O=C(O)c1ccc(Oc2ccc(Cl)cc2Cl)cn1 [5-(2,4-Dichlorophenoxy)picolinic Acid]	150 to 200 mg/kg	24.6%	–

SMILES	LD50 at 168 h [1]	inhibition in vivo at 100 mg/kg [2, 9]	also measured
CN(C)CCOC(=O)c1ccc(OCCCCCl)cn1 [dimethylaminoethyl ester of 5-(4-chlorobutoxy)picolinic acid hydrochloride]	–	–	water solubility [8]: increased water solubility
O=C(O)c1ccc(Oc2ccc(C(F)(F)F)cc2C(F)(F)F)cn1 [5-(2,4-Ditrifluoromethylphenoxy)picolinic Acid]	200 to 250 mg/kg	25.5%	–
O=C(Oc1ccc2c(c1)CCC2)c1ccc(Oc2ccccc2Cl)cn1 [indanyl ester of 5-(o-chlorophenoxy)picolinic acid]	–	–	inhibition in vivo at 100 mg/kg [4]: 29%
O=C(O)c1ccc(Oc2c(Cl)cccc2Cl)cn1 [5-(2,6-Dichlorophenoxy)picolinic Acid]	150 to 200 mg/kg	23.7%	–
Cc1ccc(Oc2ccc(C(=O)O)nc2)cc1 [5-(p-Methylphenoxy)picolinic Acid, 5-(p-methylphenoxy)picolinic acid]	200 to 300 mg/kg	17%	–
O=C(O)c1ccc(OCCCCl)cn1 [5-(3-Chloropropoxy)picolinic Acid, 5-(3-chloropropoxy)picolinic acid]	150 to 200 mg/kg	18.2%	–
O=C(O)c1ccc(OCCCCC(F)(F)F)cn1 [5-(5,5,5-trifluoropentyloxy)picolinicacid]	–	28.7%	–
O=C(O)c1ccc(Oc2ccccc2Cl)cn1 [5-(o-Chlorophenoxy)picolinic Acid, 5-(o-chlorophenoxy)picolinic acid]	150 to 200 mg/kg	30.1%	LD50 [3]: 400 to 600 mg/kg
O=C(O)c1ccc(Oc2ccc(Br)cc2)cn1 [5-(p-Bromophenoxy)picolinic Acid, 5-(p-bromophenoxy)picolinic acid]	150 to 200 mg/kg	27.5%	–
Cc1ccc(Oc2ccc(C(=O)O)nc2)c(C)c1 [5-(2,4-Dimethylphenoxy)picolinic Acid]	250 to 300 mg/kg	16.9%	–
O=C(O)c1ccc(Oc2ccc(Cl)cc2)cn1 [5-(p-Chlorophenoxy)picolinic Acid, 5-(p-chlorophenoxy)picolinic acid]	–	28.3%	LD50 [3]: 400 to 600 mg/kg; Acute Toxicity (LD50) [5]: 150 to 200 mg/kg
NC(=O)c1ccc(Oc2ccccc2Cl)cn1 [5-(o-Chlorophenoxy)picolinic Acid Amide]	–	–	inhibition in vivo at 100 mg/kg [4]: 19.6%
NC(=O)c1ccc(Oc2ccc(Cl)cc2)cn1 [5-(p-Chlorophenoxy)picolinic Acid Amide, 5-(p-chlorophenoxy)picolinic acid amide]	–	–	inhibition in vivo at 100 mg/kg [4]: 23.7%
COc1ccc(Oc2ccc(C(=O)O)nc2)c(OC)c1 [5-(2,4-Dimethoxyphenoxy)picolinic Acid]	400 to 450 mg/kg	19.2%	–
Cl.Cl.Nc1ccc(Oc2ccc(C(=O)O)nc2)cc1 [5-(p-aminophenoxy)picolinic acid dihydrochloride]	450 to 500 mg/kg	8.3%	–
O=C(O)c1ccc(OCCCCC(F)(F)F)cn1 [Calcium Salt of 5-(5,5,5-Trifluoropentyloxy)picolinic Acid] [Calcium 5-(5,5,5-trifluoropentyloxy)picolinate]	–	–	Acute Toxicity (LD50) [5]: 800 to 900 mg/kg
O=C(Oc1ccc2c(c1)CCC2)c1ccc(Oc2ccccc2C(F)(F)F)cn1 [Indanyl Ester of 5-(o-Trifluoromethylphenoxy)picolinic Acid]	–	–	inhibition in vivo at 100 mg/kg [4]: 26.3%
NC(=O)c1ccc(OCCCCCl)cn1 [5-(4-Chlorobutoxy)picolinic Acid Amide, 5-(4-chlorobutoxy)picolinic acid amide]	–	–	LD50 [3]: 1500 to 1600 mg/kg; inhibition in vivo at 100 mg/kg [4]: 21.5%
